Laboratory results from ChEMBL document CHEMBL1201862, “PubChem BioAssay data set” (2004).
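In this assay, cells in 96-well plates receive the compound at five concentrations for 48 hours. Endpoints are linearly interpolated between the surrounding concentrations. GI50 = concentration required for 50% inhibition of growth.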 The source made the active and inactive calls. No stated cut-off is given here; in the data, active = GI50 up to about 1.1 µM and inactive = higher.

Columns and labels:
Assay in all cases: DTP human tumour cell line panel, 48 h
[1] = system: A498
[2] = system: A549
[3] = system: COLO 205
[4] = system: EKVX
[5] = system: HCT-15
[6] = system: LXFL 529
[7] = system: M14
[8] = system: MOLT-4
[9] = system: Malme-3M
[10] = system: NCI-H23
[11] = system: OVCAR-4
[12] = system: OVCAR-8
[13] = system: SF-295
[14] = system: SK-MEL-2
[15] = system: SNB-75
[16] = system: SW-620
[17] = system: UACC-257
[18] = system: DU-145
[19] = system: Hs-578T
[20] = system: MCF7

SMILES | GI50 [1] | GI50 [2] | GI50 [3] | GI50 [4] | GI50 [5] [µM] | GI50 [6] | GI50 [7] | GI50 [8] | GI50 [9] | GI50 [10] | GI50 [11] | GI50 [12] | GI50 [13] | GI50 [14] | GI50 [15] | GI50 [16] | GI50 [17] | GI50 [18] | GI50 [19] | GI50 [20]
C#CC1/C(=C\C(=O)OC)CCCC1O (configuration not stated) | > 100 µM (inactive) | > 100 µM (inactive) | > 100 µM (inactive) | > 100 µM (inactive) | > 100 | > 100 µM (inactive) | > 100 µM (inactive) | > 100 µM (inactive) | > 100 µM (inactive) | > 100 µM (inactive) | > 100 µM (inactive) | > 100 µM (inactive) | > 100 µM (inactive) | > 100 µM (inactive) | > 100 µM (inactive) | > 100 µM (inactive) | > 100 µM (inactive) |  |  | 
COc1cc(OC)c2c(=O)c3c([N+](=O)[O-])cccc3n(C)c2c1 | > 100 µM (inactive) | > 100 µM (inactive) | > 100 µM (inactive) | > 100 µM (inactive) | > 100 | > 100 µM (inactive) | > 100 µM (inactive) | > 100 µM (inactive) | > 100 µM (inactive) | > 100 µM (inactive) | > 100 µM (inactive) | > 100 µM (inactive) | > 100 µM (inactive) | > 100 µM (inactive) | > 100 µM (inactive) | > 100 µM (inactive) | > 100 µM (inactive) |  |  | 
CC(C)N1CN(C(C(=O)N[C@@H]2C(=O)N3C2SC(C)(C)C3C(=O)O)c2ccccc2)CSC1=S (some centres not stated) | > 100 µM (inactive) |  | 46.9 µM (inactive) | > 100 µM (inactive) | 22.1 | > 100 µM (inactive) | > 100 µM (inactive) | > 100 µM (inactive) | > 100 µM (inactive) | > 100 µM (inactive) | > 100 µM (inactive) | > 100 µM (inactive) | > 100 µM (inactive) | > 100 µM (inactive) | > 100 µM (inactive) |  | > 100 µM (inactive) |  |  | 
O=C1CCCC1NC(=O)C(F)(F)F (configuration not stated) | > 100 µM (inactive) | > 100 µM (inactive) |  | > 100 µM (inactive) |  | > 100 µM (inactive) | > 100 µM (inactive) | > 100 µM (inactive) | 0.182 µM (active) | > 100 µM (inactive) | > 100 µM (inactive) | > 100 µM (inactive) | > 100 µM (inactive) | > 100 µM (inactive) | > 100 µM (inactive) | > 100 µM (inactive) | > 100 µM (inactive) |  |  | 
O=C(O)CN(c1ccccc1)S(=O)(=O)c1ccccc1[N+](=O)[O-] | > 100 µM (inactive) | > 100 µM (inactive) | > 100 µM (inactive) | > 100 µM (inactive) | > 100 | > 100 µM (inactive) | > 100 µM (inactive) | > 100 µM (inactive) | > 100 µM (inactive) | > 100 µM (inactive) | > 100 µM (inactive) | > 100 µM (inactive) | > 100 µM (inactive) | > 100 µM (inactive) | > 100 µM (inactive) | > 100 µM (inactive) | > 100 µM (inactive) |  |  | 
COc1cccc(/C=C2\CCC(CCN(C)C)(C3=CCCC3)C2=O)c1 (configuration not stated) | 15.7 µM (inactive) | 16.1 µM (inactive) | 8.3 µM (inactive) |  | 16.2 | 15.5 µM (inactive) | 14.4 µM (inactive) | 13.9 µM (inactive) | 15.6 µM (inactive) | 19.3 µM (inactive) | 16.4 µM (inactive) | 17.3 µM (inactive) | 17 µM (inactive) | 15.9 µM (inactive) | 15.9 µM (inactive) | 13.9 µM (inactive) | 15.5 µM (inactive) |  |  | 
Oc1cc(-c2cccc(F)c2)nc2cc3c(cc12)OCO3 | 0.157 µM (active) | 0.119 µM (active) | 0.0743 µM (active) | 6.56 µM (inactive) | 0.0711 | 0.463 µM (active) | 0.0402 µM (active) | 0.136 µM (active) | 0.0454 µM (active) | 0.294 µM (active) | 1.26 µM (inactive) | 0.0347 µM (active) | 0.102 µM (active) | 0.0308 µM (active) | 0.0334 µM (active) | 0.0356 µM (active) | 0.0236 µM (active) | 0.0524 µM (active) | 0.0226 µM (active) | 0.108 µM (active)
CCOC(=O)Nc1cc2c(c(N)n1)N=C(c1ccccc1)[C@H](C)N2 [MIVOBULIN ISETHIONATE] | 0.0299 µM (active) | < 0.0001 µM (active) | < 0.0001 µM (active) | 0.0653 µM (active) | 0.0324 | < 0.0001 µM (active) | 0.00011 µM (active) | < 0.0001 µM (active) | < 0.0001 µM (active) | 0.00161 µM (active) | 0.00363 µM (active) | < 0.0001 µM (active) | < 0.0001 µM (active) | < 0.0001 µM (active) | 0.000215 µM (active) | < 0.0001 µM (active) | 0.00215 µM (active) | < 0.0001 µM (active) | < 0.0001 µM (active) | < 0.0001 µM (active)
